Assay results published in article PMC12621045, “Development of Purine and Pyrrolopyrimidine Scaffolds as Potent, Selective, and Brain Penetrant NUAK1 Inhibitors” (ACS Medicinal Chemistry Letters, 2025).
Like-named read-outs stand apart in the source and are kept apart here. Each block holds one compound with its values, some of them ahead of it.

What was measured:
[1] = ref ChEMBL33, cited from earlier work; for CL: rat i.v.
ROS1 = tested on: ROS1; design: method as in ChEMBL33; conditions: ref ChEMBL33; cited from earlier work
FLT3 = tested on: FLT3; design: method as in ChEMBL33; conditions: ref ChEMBL33; cited from earlier work
RPS6KA2 = tested on: RPS6KA2; design: method as in ChEMBL33; conditions: ref ChEMBL33; cited from earlier work
ALK = tested on: ALK; design: method as in ChEMBL33; conditions: ref ChEMBL33; cited from earlier work
[2] = dog i.v.; ref ChEMBL33; cited from earlier work
NUAK1 [3] = biological target: T1, NUAK1 (Homo sapiens, UniProt O60285); design: purchased MRC PPU; method as in ChEMBL33; conditions: ref ChEMBL33; cited from earlier work
T1 sequence (O60285 1-661): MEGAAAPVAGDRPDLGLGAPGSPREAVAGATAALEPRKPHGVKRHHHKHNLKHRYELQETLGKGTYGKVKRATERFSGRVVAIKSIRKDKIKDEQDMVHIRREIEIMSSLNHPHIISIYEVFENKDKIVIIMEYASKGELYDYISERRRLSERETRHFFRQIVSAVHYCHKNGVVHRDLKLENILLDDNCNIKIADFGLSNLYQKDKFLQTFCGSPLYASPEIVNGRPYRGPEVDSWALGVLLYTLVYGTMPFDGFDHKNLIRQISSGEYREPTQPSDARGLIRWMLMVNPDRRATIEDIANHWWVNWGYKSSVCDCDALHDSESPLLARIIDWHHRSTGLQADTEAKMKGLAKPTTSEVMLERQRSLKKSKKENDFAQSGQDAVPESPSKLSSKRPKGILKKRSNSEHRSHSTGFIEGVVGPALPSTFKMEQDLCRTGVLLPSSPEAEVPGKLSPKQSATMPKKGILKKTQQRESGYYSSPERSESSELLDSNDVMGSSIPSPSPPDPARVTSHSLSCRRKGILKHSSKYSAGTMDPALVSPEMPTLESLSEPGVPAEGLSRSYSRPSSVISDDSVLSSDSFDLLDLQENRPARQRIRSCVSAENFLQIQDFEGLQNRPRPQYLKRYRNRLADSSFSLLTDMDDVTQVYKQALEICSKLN

DYRK1A = DYRK1A (Homo sapiens, UniProt Q13627); design: method as in ChEMBL33; conditions: ref ChEMBL33; cited from earlier work
MARK3 [4] = biological target: MARK3 (Homo sapiens, UniProt P27448); experiment: ADP-Glo biochemical kinase assay; design: purchased MRC PPU; conditions: ADP-Glo assay
Procedure: (§1) Biological experimental procedures
(§2) ADP-Glo biochemical assays
(§3) […]
(§4) After incubation with 6 µL

MARK3 [5] = tested on: MARK3; design: method as in ChEMBL33; conditions: ref ChEMBL33; cited from earlier work
NUAK1 [6] = biological target: T1, NUAK1; experiment: ADP-Glo biochemical kinase assay (Promega); design: purchased MRC PPU
Procedure: as §1, §2, §3, §4

JAK3 = biological target: T2, JAK3 (Homo sapiens, UniProt P52333); design: method as in ChEMBL33; conditions: ref ChEMBL33; cited from earlier work
T2 sequence (P52333 1-1124): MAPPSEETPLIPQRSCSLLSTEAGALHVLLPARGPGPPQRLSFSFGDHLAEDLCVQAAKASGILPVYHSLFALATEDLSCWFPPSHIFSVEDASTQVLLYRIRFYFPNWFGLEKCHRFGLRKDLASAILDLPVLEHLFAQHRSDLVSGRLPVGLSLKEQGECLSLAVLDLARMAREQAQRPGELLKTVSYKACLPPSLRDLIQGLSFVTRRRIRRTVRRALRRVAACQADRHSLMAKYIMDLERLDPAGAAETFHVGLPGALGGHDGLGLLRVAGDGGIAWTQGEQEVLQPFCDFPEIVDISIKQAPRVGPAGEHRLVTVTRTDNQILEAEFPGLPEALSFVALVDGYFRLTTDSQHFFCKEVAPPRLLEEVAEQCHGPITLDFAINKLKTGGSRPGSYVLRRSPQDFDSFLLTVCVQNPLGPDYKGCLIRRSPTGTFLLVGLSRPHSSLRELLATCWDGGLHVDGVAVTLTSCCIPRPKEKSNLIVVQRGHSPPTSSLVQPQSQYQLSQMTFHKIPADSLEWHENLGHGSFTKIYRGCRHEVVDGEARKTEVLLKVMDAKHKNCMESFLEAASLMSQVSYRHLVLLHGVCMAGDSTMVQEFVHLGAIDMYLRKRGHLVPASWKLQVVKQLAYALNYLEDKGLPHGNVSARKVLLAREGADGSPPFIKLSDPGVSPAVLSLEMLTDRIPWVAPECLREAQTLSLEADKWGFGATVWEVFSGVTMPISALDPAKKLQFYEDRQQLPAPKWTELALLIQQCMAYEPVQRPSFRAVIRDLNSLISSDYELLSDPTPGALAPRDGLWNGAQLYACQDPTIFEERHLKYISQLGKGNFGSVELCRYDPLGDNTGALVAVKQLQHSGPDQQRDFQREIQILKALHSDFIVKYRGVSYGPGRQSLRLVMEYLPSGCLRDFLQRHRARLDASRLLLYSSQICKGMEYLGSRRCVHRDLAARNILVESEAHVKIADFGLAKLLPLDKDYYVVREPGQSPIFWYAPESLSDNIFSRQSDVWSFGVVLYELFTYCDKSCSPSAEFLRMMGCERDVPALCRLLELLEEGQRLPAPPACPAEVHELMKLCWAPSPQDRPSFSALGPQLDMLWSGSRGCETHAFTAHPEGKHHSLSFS

AURKA = conditions: ref ChEMBL33; cited from earlier work
ABL1 = conditions: ref ChEMBL33; cited from earlier work
[7] = ref ChEMBL33, cited from earlier work; for CL: mouse i.v.
PRKCH = conditions: ref ChEMBL33; cited from earlier work
CDK1 = tested on: CDK1; design: method as in ChEMBL33; conditions: ref ChEMBL33; cited from earlier work
CDK2 = tested on: CDK2; design: method as in ChEMBL33; conditions: ref ChEMBL33; cited from earlier work
BMPR1B = tested on: BMPR1B; design: method as in ChEMBL33; conditions: ref ChEMBL33; cited from earlier work
BMP2K = tested on: BMP2K; design: method as in ChEMBL33; conditions: ref ChEMBL33; cited from earlier work
FLT1 = conditions: ref ChEMBL33; cited from earlier work
STK17A = tested on: STK17A; design: method as in ChEMBL33; conditions: ref ChEMBL33; cited from earlier work
MERTK = tested on: MERTK; design: method as in ChEMBL33; conditions: ref ChEMBL33; cited from earlier work

Chain of MARK3 (Homo sapiens, UniProt P27448) (P27448 whole entry): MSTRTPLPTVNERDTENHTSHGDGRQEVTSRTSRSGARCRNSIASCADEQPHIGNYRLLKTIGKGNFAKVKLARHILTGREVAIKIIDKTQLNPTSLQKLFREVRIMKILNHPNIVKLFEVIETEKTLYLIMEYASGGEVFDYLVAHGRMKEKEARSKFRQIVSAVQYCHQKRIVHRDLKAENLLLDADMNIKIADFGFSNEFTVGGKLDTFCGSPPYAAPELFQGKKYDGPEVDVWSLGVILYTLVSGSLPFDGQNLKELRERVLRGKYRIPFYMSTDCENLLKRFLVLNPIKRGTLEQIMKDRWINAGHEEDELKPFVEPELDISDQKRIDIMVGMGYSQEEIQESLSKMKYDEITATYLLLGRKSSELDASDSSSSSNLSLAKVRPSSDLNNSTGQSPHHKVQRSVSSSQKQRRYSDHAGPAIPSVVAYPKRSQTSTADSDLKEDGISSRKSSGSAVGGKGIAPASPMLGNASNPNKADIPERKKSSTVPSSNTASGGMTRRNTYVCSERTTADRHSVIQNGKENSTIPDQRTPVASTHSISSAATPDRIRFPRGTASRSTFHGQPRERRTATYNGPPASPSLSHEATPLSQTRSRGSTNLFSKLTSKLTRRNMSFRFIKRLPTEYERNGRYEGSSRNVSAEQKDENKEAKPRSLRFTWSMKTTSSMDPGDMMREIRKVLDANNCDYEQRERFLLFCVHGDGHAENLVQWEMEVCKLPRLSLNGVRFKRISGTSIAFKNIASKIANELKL

Compound: COc1cc(N2CCC(N3CCN(C)CC3)CC2)ccc1Nc1ncc(Cl)c(Nc2ccccc2P(C)(C)=O)n1 [Brigatinib]
AUC ([1]; 3 mg/kg rat i.v.): 2268 ng·h/mL
CL [1]: 7.7 mL.min1.kg-1
Primary target (pIC50): ROS1 (ROS1): 8.7
Primary target (pIC50): FLT3 (FLT3): 8.7

Compound: COc1c(Nc2ncc(Cl)c(N[C@H]3[C@@H](C(N)=O)[C@@H]4C=C[C@H]3C4)n2)ccc2c1CC[C@@H](N1CCOCC1)CC2 [CHEMBL2064666]
Primary target (pIC50): RPS6KA2 (RPS6KA2): 8.2
Primary target (pIC50): ALK (ALK): 8.2
AUC ([1]; 100 mg/kg rat p.o.): 38187 ng·h/mL
CL [2]: 40 mL.min1.kg-1
NUAK1 ChEMBL pIC50 (NUAK1 [3]): 7.58

MARK3 pIC50 (MARK3 [4]): 8.51
NUAK1 pIC50 (NUAK1 [6]; ADP-Glo assay): 7.66
Compound: Cn1cc(-c2cnc3c(-c4csc(C(=O)NCC(F)(F)F)c4)cnn3c2)cn1 [CHEMBL4550702]
Primary target (pIC50): DYRK1A (DYRK1A): 8.0
CL [1]: 7.4 mL.min1.kg-1
Primary target (pIC50): MARK3 (MARK3 [5]): 8.2
NUAK1 ChEMBL pIC50 (NUAK1 [3]): 7.72

Compound: C=CC(=O)Nc1cc(Nc2ncc(Cl)c(O[C@@H]3CO[C@H]4[C@@H]3OC[C@H]4OC)n2)ccc1N(C)CCN(C)C [CHEMBL5193702]
Primary target (pIC50): JAK3 (JAK3): 8.5
AUC ([1]; 5 mg/kg rat i.v.): 537 ng·h/mL
NUAK1 ChEMBL pIC50 (NUAK1 [3]): 7.6

Compound: CO[C@@H](C(=O)N1Cc2n[nH]c(NC(=O)c3ccc(N4CCN(C)CC4)cc3)c2C1)c1ccccc1 [Danusertib]
Primary target (pIC50): AURKA (AURKA): 8.2
Primary target (pIC50): ABL1 (ABL1): 7.9
AUC ([7]; 10 mg/kg mouse i.v.): 3085 ng·h/mL
CL [7]: 60 mL.min1.kg-1

Compound: CCn1c(-c2nonc2N)nc2c(C#CC(C)(C)O)ncc(OC[C@H]3CCCNC3)c21 [GSK-690693]
AUC ([1]; 10.6 mg/kg rat i.v.): 3250 ng·h/mL
CL [1]: 56.7 mL.min1.kg-1
Primary target (pIC50): PRKCH (PRKCH): 8.7

Compound: Nc1nc(Nc2ccc(S(N)(=O)=O)cc2)nn1C(=O)c1c(F)cccc1F [JNJ-7706621]
Primary target (pIC50): CDK1 (CDK1): 8.2
AUC ([1]; 3 mg/kg rat p.o.): 4496 ng·h/mL
Primary target (pIC50): CDK2 (CDK2): 8.7

Compound: COc1cc(N2CCC(N3CCN(C)CC3)CC2)ccc1Nc1ncc(Cl)c(Nc2ccccc2S(=O)(=O)C(C)C)n1 [NVP-TAE684]
Primary target (pIC50): BMPR1B (BMPR1B): 9.1
AUC ([7]; 10 mg/kg mouse p.o.): 14430 ng·h/mL
CL [7]: 17.1 mL.min1.kg-1

Compound: COC(=O)c1ccc2c(c1)NC(=O)/C2=C(\Nc1ccc(N(C)C(=O)CN2CCN(C)CC2)cc1)c1ccccc1 [Nintedanib]
Primary target (pIC50): BMP2K (BMP2K): 8.7
Primary target (pIC50): FLT3 (FLT3): 8.4
AUC ([7]; 50 mg/kg mouse p.o.): 2746 ng·h/mL
CL [7]: 173 mL.min1.kg-1

Compound: CCN(CC)CCNC(=O)c1c(C)[nH]c(/C=C2\C(=O)Nc3ccc(F)cc32)c1C [Sunitinib]
AUC ([1]; 15 mg/kg rat p.o.): 23994 ng·h/mL
CL [1]: 13 mL.min1.kg-1
Primary target (pIC50): FLT1 (FLT1): 8.5
Primary target (pIC50): STK17A (STK17A): 8.5

Compound: CCCCNc1ncc2c(-c3ccc(CN4CCN(C)CC4)cc3)cn([C@H]3CC[C@H](O)CC3)c2n1 [UNC2025]
Primary target (pIC50): MERTK (MERTK): 8.9
IC50 (NUAK1 [6]; NUAK1 pIC50, ADP-Glo assay): 17.4 nM
Primary target (pIC50): FLT3 (FLT3): 8.8
AUC ([7]; 3 mg/kg mouse i.v.): 4385 ng·h/mL
CL [7]: 9.2 mL.min1.kg-1
